Data as given in ChEMBL document CHEMBL1909538, “Iodine-catalyzed conjugate addition of indoles onto en-1,4-dione: a novel synthesis of 3-(1-(1H-indol-3-yl)-2-oxo-2-phenylethyl)indolin-2-ones as antibacterial and antifungal agents” (2011).
Converted amounts (≈) assume the structure as drawn.

Experiments:
Escherichia coli = experiment: Antimicrobial activity against Escherichia coli MTCC 443 by broth dilution method; type: functional
Pseudomonas aeruginosa = experiment: Antimicrobial activity against Pseudomonas aeruginosa MTCC 741 by broth dilution method; type: functional
Klebsiella pneumoniae = experiment: Antimicrobial activity against Klebsiella pneumoniae MTCC 618 by broth dilution method; type: functional
Candida albicans [1] = experiment: Antifungal activity against Candida albicans MTCC 227 at 100 ug after 48 hrs by agar well diffusion method; type: functional; details: MTCC 227, 48 h, read-out: DIZ
Diutina rugosa [2] = experiment: Antifungal activity against Candida rugosa at 100 ug after 48 hrs by agar well diffusion method; type: functional; details: read-out: DIZ
Saccharomyces cerevisiae [3] = experiment: Antifungal activity against Saccharomyces cerevisiae MTCC 36 at 100 ug after 48 hrs by agar well diffusion method; type: functional; details: MTCC 36, 48 h, read-out: DIZ
Candida albicans [4] = experiment: Antifungal activity against Candida albicans MTCC 227 at 150 ug after 48 hrs by agar well diffusion method; type: functional; details: MTCC 227, 48 h, read-out: DIZ
Diutina rugosa [5] = experiment: Antifungal activity against Candida rugosa at 150 ug after 48 hrs by agar well diffusion method; type: functional; details: read-out: DIZ
Saccharomyces cerevisiae [6] = experiment: Antifungal activity against Saccharomyces cerevisiae MTCC 36 at 150 ug after 48 hrs by agar well diffusion method; type: functional; details: MTCC 36, 48 h, read-out: DIZ
Bacillus subtilis = experiment: Antimicrobial activity against Bacillus subtilis MTCC 441 by broth dilution method; type: functional
Staphylococcus aureus = experiment: Antimicrobial activity against Staphylococcus aureus MTCC 96 by broth dilution method; type: functional
[7] = system: Staphylococcus epidermidis; experiment: Antimicrobial activity against Staphylococcus epidermidis by broth dilution method; type: functional
Aspergillus flavus [8] = experiment: Antifungal activity against Aspergillus flavus at 100 ug after 48 hrs by agar well diffusion method; details: read-out: DIZ
Aspergillus flavus [9] = experiment: Antifungal activity against Aspergillus flavus at 150 ug after 48 hrs by agar well diffusion method; details: read-out: DIZ
Candida albicans [10] = experiment: Antifungal activity against Candida albicans MTCC 227 at 50 ug after 48 hrs by agar well diffusion method; type: functional; details: MTCC 227, 48 h, read-out: DIZ
Diutina rugosa [11] = experiment: Antifungal activity against Candida rugosa at 50 ug after 48 hrs by agar well diffusion method; type: functional; details: read-out: DIZ
Saccharomyces cerevisiae [12] = experiment: Antifungal activity against Saccharomyces cerevisiae MTCC 36 at 50 ug after 48 hrs by agar well diffusion method; type: functional; details: MTCC 36, 48 h, read-out: DIZ
Aspergillus flavus [13] = experiment: Antifungal activity against Aspergillus flavus at 50 ug after 48 hrs by agar well diffusion method; details: read-out: DIZ

MIC (Escherichia coli) [µg/mL]	MIC (Pseudomonas aeruginosa) [µg/mL]	MIC (Klebsiella pneumoniae) [µg/mL]	MIC (Bacillus subtilis) [µg/mL]	MIC (Staphylococcus aureus) [µg/mL]	MIC [7] [µg/mL]	SMILES	zone of inhibition at 100 µg/disc (Candida albicans [1]) [mm]	zone of inhibition at 100 µg/disc (Diutina rugosa [2]) [mm]	zone of inhibition at 100 µg/disc (Saccharomyces cerevisiae [3]) [mm]	zone of inhibition at 150 µg/disc (Candida albicans [4]) [mm]	zone of inhibition at 150 µg/disc (Diutina rugosa [5]) [mm]	zone of inhibition at 150 µg/disc (Saccharomyces cerevisiae [6]) [mm]	zone of inhibition at 100 µg/disc (Aspergillus flavus [8]) [mm]	zone of inhibition at 150 µg/disc (Aspergillus flavus [9]) [mm]	zone of inhibition at 50 µg/disc (Candida albicans [10]) [mm]	zone of inhibition at 50 µg/disc (Diutina rugosa [11]) [mm]	zone of inhibition at 50 µg/disc (Saccharomyces cerevisiae [12]) [mm]	zone of inhibition at 50 µg/disc (Aspergillus flavus [13]) [mm]
150 (≈ 409 µM)	9.38 (≈ 25.6 µM)	150 (≈ 409 µM)	75 (≈ 205 µM)	75 (≈ 205 µM)	150 (≈ 409 µM)	O=C1Nc2ccccc2C1C(C(=O)c1ccccc1)c1c[nH]c2ccccc12 (stereo unspecified)	0	11	0	0	16	0	0	0				
150 (≈ 383 µM)	150 (≈ 383 µM)	150 (≈ 383 µM)	150 (≈ 383 µM)	150 (≈ 383 µM)	150 (≈ 383 µM)	N#Cc1ccc2[nH]cc(C(C(=O)c3ccccc3)C3C(=O)Nc4ccccc43)c2c1 (stereo unspecified)	0	8	0	0	11	0	0	0				
150 (≈ 353 µM)	150 (≈ 353 µM)	150 (≈ 353 µM)	150 (≈ 353 µM)	150 (≈ 353 µM)	150 (≈ 353 µM)	Cc1[nH]c2ccc([N+](=O)[O-])cc2c1C(C(=O)c1ccccc1)C1C(=O)Nc2ccccc21 (stereo unspecified)	0	0	0	0	0	0	0	0				
150 (≈ 394 µM)	18.8 (≈ 49.3 µM)	150 (≈ 394 µM)	150 (≈ 394 µM)	150 (≈ 394 µM)	150 (≈ 394 µM)	Cn1cc(C(C(=O)c2ccccc2)C2C(=O)Nc3ccccc32)c2ccccc21 (stereo unspecified)	0	10	0	0	16	0	0	0				
150 (≈ 337 µM)	18.8 (≈ 42.1 µM)	150 (≈ 337 µM)	150 (≈ 337 µM)	150 (≈ 337 µM)	150 (≈ 337 µM)	O=C1Nc2ccccc2C1C(C(=O)c1ccccc1)c1c[nH]c2ccc(Br)cc12 (stereo unspecified)	0	0	0	0	15	0	0	0				
150 (≈ 365 µM)	9.38 (≈ 22.8 µM)	150 (≈ 365 µM)	75 (≈ 182 µM)	150 (≈ 365 µM)	150 (≈ 365 µM)	O=C1Nc2ccccc2C1C(C(=O)c1ccccc1)c1c[nH]c2ccc([N+](=O)[O-])cc12 (stereo unspecified)	0	0	0	0	0	0	0	0				
150 (≈ 353 µM)	18.8 (≈ 44.2 µM)	150 (≈ 353 µM)	150 (≈ 353 µM)	75 (≈ 177 µM)	150 (≈ 353 µM)	COC(=O)c1ccc2[nH]cc(C(C(=O)c3ccccc3)C3C(=O)Nc4ccccc43)c2c1 (stereo unspecified)	0	10	0	0	15	0	0	0				
150 (≈ 394 µM)	18.8 (≈ 49.3 µM)	150 (≈ 394 µM)	150 (≈ 394 µM)	37.5 (≈ 98.6 µM)	150 (≈ 394 µM)	Cc1[nH]c2ccccc2c1C(C(=O)c1ccccc1)C1C(=O)Nc2ccccc21 (stereo unspecified)	0	9	0	0	13	0	0	0				
150 (≈ 374 µM)	9.38 (≈ 23.4 µM)	150 (≈ 374 µM)	150 (≈ 374 µM)	18.8 (≈ 46.8 µM)	75 (≈ 187 µM)	O=C1Nc2ccccc2C1C(C(=O)c1ccccc1)c1c[nH]c2ccc(Cl)cc12 (stereo unspecified)	0	13	0	0	17	0	0	0				
150 (≈ 339 µM)	9.38 (≈ 21.2 µM)	150 (≈ 339 µM)	150 (≈ 339 µM)	75 (≈ 169 µM)	75 (≈ 169 µM)	O=C1Nc2ccccc2C1C(C(=O)c1ccccc1)c1c(-c2ccccc2)[nH]c2ccccc12 (stereo unspecified)	0	12	0	0	17	0	0	0				
						C[C@@H]1[C@H](O)[C@@H](C)/C=C/C=C/C=C/C=C/C=C/C=C/C=C/[C@H](O[C@@H]2O[C@H](C)[C@@H](O)[C@H](N)[C@@H]2O)C[C@@H]2O[C@](O)(C[C@@H](O)C[C@@H](O)[C@H](O)CC[C@@H](O)C[C@@H](O)CC(=O)O[C@H]1C)C[C@H](O)[C@H]2C(=O)O [AMPHOTERICIN B]									23.5	21	22	25
12.5 (≈ 37.4 µM)	12.5 (≈ 37.4 µM)	6.25 (≈ 18.7 µM)	1.56 (≈ 4.67 µM)	1.56 (≈ 4.67 µM)	3.12 (≈ 9.35 µM)	CC1(C)S[C@@H]2[C@H](NC(=O)Cc3ccccc3)C(=O)N2[C@H]1C(=O)O [PENICILLIN G]												

SMILES	MIC (Escherichia coli) [µg/mL]	MIC (Pseudomonas aeruginosa) [µg/mL]	MIC (Klebsiella pneumoniae) [µg/mL]	MIC (Bacillus subtilis) [µg/mL]	MIC (Staphylococcus aureus) [µg/mL]	MIC [7] [µg/mL]	zone of inhibition at 100 µg/disc (Candida albicans [1]) [mm]	zone of inhibition at 100 µg/disc (Diutina rugosa [2]) [mm]	zone of inhibition at 100 µg/disc (Saccharomyces cerevisiae [3]) [mm]	zone of inhibition at 150 µg/disc (Candida albicans [4]) [mm]	zone of inhibition at 150 µg/disc (Diutina rugosa [5]) [mm]	zone of inhibition at 150 µg/disc (Saccharomyces cerevisiae [6]) [mm]	zone of inhibition at 100 µg/disc (Aspergillus flavus [8]) [mm]	zone of inhibition at 150 µg/disc (Aspergillus flavus [9]) [mm]	zone of inhibition at 50 µg/disc (Candida albicans [10]) [mm]	zone of inhibition at 50 µg/disc (Diutina rugosa [11]) [mm]	zone of inhibition at 50 µg/disc (Saccharomyces cerevisiae [12]) [mm]	zone of inhibition at 50 µg/disc (Aspergillus flavus [13]) [mm]
CN[C@@H]1[C@H](O[C@H]2[C@H](O[C@H]3[C@H](O)[C@@H](O)[C@H](N=C(N)N)[C@@H](O)[C@@H]3N=C(N)N)O[C@@H](C)[C@]2(O)C=O)O[C@@H](CO)[C@H](O)[C@H]1O [STREPTOMYCIN]	6.25 (≈ 10.7 µM)	1.56 (≈ 2.69 µM)	3.12 (≈ 5.37 µM)	6.25 (≈ 10.7 µM)	6.25 (≈ 10.7 µM)	3.12 (≈ 5.37 µM)												
